Measured values published in patent US20090099169A1, “Benzofuran Compounds As EP1 Receptor Antagonists” (GLAXO GROUP LIMITED, priority 2006, published 2009).
Counter-ions that a name gives are not always drawn.

Tests used:
human EP3 receptor = target: T1, human EP3 receptor (Homo sapiens, UniProt P43115); assay: human EP3 calcium mobilisation assay; format: cell-based; settings: CHO-K1 cells, antagonism of PGE2; averages of a number of experiments; read-out: functional pKi value (human EP3 calcium mobilisation assay) (converted)
T1 construct: expressed in transfected cells; host or cells: CHO-K1
T1 sequence (P43115 1-390): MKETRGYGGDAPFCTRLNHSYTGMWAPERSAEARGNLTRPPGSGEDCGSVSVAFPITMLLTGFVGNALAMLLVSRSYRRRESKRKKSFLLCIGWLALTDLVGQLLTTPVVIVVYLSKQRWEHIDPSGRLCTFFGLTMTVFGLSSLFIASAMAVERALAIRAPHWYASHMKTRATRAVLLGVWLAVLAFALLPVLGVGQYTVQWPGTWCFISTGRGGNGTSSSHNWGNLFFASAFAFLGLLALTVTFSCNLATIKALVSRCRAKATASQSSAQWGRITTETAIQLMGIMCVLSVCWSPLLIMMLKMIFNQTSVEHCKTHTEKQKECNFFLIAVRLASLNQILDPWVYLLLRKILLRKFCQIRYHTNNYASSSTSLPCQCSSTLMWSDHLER
Experimental: Briefly, the antagonist properties of compounds are assessed by their ability to inhibit the mobilisation of intracellular calcium ([Ca^2+]i) in response to activation of EP1 or EP3 receptors by the natural agonist hormone prostaglandin E2 (PGE2). Increasing concentrations of antagonist reduce the amount of calcium that a given concentration of PGE2 can mobilise. The net effect is to displace the PGE2 concentration-effect curve to higher concentrations of PGE2. The amount of calcium produced is assessed using a calcium-sensitive fluorescent dye such as Fluo-4, AM and a suitable instrument such as a Fluorimetric Imaging Plate Reader (FLIPR). Increasing amounts of [Ca^2+]i produced by receptor activation increase the amount of fluorescence produced by the dye and give rise to an increasing signal. The signal may be detected using the FLIPR instrument and the data generated may be analysed with suitable curve-fitting software.
The human EP1 or EP3 calcium mobilisation assay (hereafter referred to as ‘the calcium assay’) utilises Chinese hamster ovary-K1 (CHO-K1) cells into which a stable (PCIN; BioTechniques 20 (1996): 102-110) vector containing either EP1 or EP3 cDNA has previously been transfected. Cells are cultured in suitable flasks containing culture medium such as DMEM:F-12 supplemented with 10% v/v foetal calf serum, 2 mM L-glutamine, 0.25 mg/ml geneticin, 100 μM flurbiprofen and 10 μg/ml puromycin.
For assay, cells are harvested using a proprietary reagent that dislodges cells such as Versene. Cells are re-suspended in a suitable quantity of fresh culture media for introduction into a 384-well plate. Following incubation for 24 hours at 37° C. the culture media is replaced with a medium containing Fluo-4 and the detergent pluronic acid, and a further incubation takes place. Concentrations of compounds are then added to the plate in order to construct concentration-effect curves. This may be performed on the FLIPR in order to assess the agonist properties of the compounds. Concentrations of PGE2 are then added to the plate in order to assess the antagonist properties of the compounds.
The data so generated may be analysed by means of a computerised curve-fitting routine. The concentration of compound that elicits a half-maximal inhibition of the calcium mobilisation induced by PGE2 (pIC50) may then be estimated.

human EP1 receptor = target: T2, human EP1 receptor (Homo sapiens, UniProt P34995); assay: human EP1 calcium mobilisation assay; format: cell-based; parameters: expressed in transfected cells; settings: CHO-K1 cells, antagonism of PGE2; averages of a number of experiments; read-out: functional pKi value (human EP1 calcium mobilisation assay) (converted)
T2 sequence (P34995 1-402): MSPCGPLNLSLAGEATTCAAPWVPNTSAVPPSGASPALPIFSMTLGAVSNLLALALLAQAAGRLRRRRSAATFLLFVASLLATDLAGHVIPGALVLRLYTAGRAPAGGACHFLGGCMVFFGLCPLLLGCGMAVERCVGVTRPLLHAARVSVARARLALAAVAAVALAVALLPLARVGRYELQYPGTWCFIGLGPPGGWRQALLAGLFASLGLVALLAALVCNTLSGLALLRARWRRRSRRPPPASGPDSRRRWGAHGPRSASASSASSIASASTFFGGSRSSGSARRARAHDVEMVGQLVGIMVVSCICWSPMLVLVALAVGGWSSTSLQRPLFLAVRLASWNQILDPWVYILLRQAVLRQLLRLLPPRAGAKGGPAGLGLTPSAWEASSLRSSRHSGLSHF
Procedure, shortened: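 CHO-K1 cells stably transfected with human EP1 or EP3, loaded with Fluo-4 after 24 h culture, treated with compound, then challenged with PGE2. Calcium-driven fluorescence read on FLIPR; pIC50 is half-maximal inhibition of PGE2-induced calcium mobilisation, from curve fitting.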

Ki (human EP3 receptor) | Ki (human EP1 receptor) | SMILES
501 to 10000 nM | ≤ 316 nM | CC(C)c1cc2cc(Cl)cc(Cc3ccc(C(=O)O)o3)c2o1 [Example 1, 5-{[5-Chloro-2-(1-methylethyl)-1-benzofuran-7-yl]methyl}-2-furancarboxylic Acid]
501 to 10000 nM | ≤ 316 nM | Cc1cc(C(=O)O)nn1Cc1cc(Cl)cc2cc(C(C)C)oc12 [Example 3, 1-{[5-Chloro-2-(1-methylethyl)-1-benzofuran-7-yl]methyl}-5-methyl-1H-pyrazole-3-carboxylic Acid]
 | ≤ 316 nM | CCNCc1ccc(NC(=O)c2cc(C)n(Cc3cc(Cl)cc4cc(C(C)C)oc34)n2)cc1 [Example 15, 1-{[5-Chloro-2-(1-methylethyl)-1-benzofuran-7-yl]methyl}-N-{4-[(ethylamino)methyl]phenyl}-5-methyl-1H-pyrazole-3-carboxamide hydrochloride]
 | ≤ 316 nM | Cc1cc(C(=O)Nc2ccc(CN3CCC(O)CC3)cc2)nn1Cc1cc(Cl)cc2cc(C(C)C)oc12 [Example 16, 1-{[5-Chloro-2-(1-methylethyl)-1-benzofuran-7-yl]methyl}-N-{4-[(4-hydroxy-1-piperidinyl)methyl]phenyl}-5-methyl-1H-pyrazole-3-carboxamide hydrochloride]
 | ≤ 316 nM | Cc1cc(C(=O)Nc2ccc(CN3CC[C@@H](O)C3)cc2)nn1Cc1cc(Cl)cc2cc(C(C)C)oc12 [Example 17, 1-{[5-Chloro-2-(1-methylethyl)-1-benzofuran-7-yl]methyl}-N-(4-{[(3R)-3-hydroxy-1-pyrrolidinyl]methyl}phenyl)-5-methyl-1H-pyrazole-3-carboxamide hydrochloride]
 | ≤ 316 nM | Cc1cc(C(=O)NN2CCOCC2)nn1Cc1cc(Cl)cc2cc(C3CCCCC3)oc12 [Example 28, 1-[(5-Chloro-2-cyclohexyl-1-benzofuran-7-yl)methyl]-5-methyl-N-4-morpholinyl-1H-pyrazole-3-carboxamide]
